Where two headings read alike, the source gives them in different places.
Legend:
[1] = Mortality, body weight and safety in tumor mice models; format: in vivo, athymic nude mice; conditions: lung and pancreatic cancer models
Protocol: • 1. Mortality—every day • 2. Tumor measurements—twice a week • 3. Tumor weight post mortem • 4. Tissue preservation—kept in formalin or were snap freezed and kept at −80° C.
The first day of the study was defined as ‘Day 1’. The animals were administrated IP with either Vehicle (PBS or Formulation), lentiviral particles and SC with test items according to Table 27 on days 1, 4, 8 and 11. Body weight and tumor volume were checked on days 3, 7, 11, 14 and 17 (the latter was measured with a caliper). At the end of the experiment, on day 17, the mice were anesthetized and then sacrificed, and the tumors were removed, as well as lung, spleen, kidney and liver.

HIV-1 = system: HIV-1
Protocol: This is a phase I/IIa pilot—Proof of Concept, dose escalation study.
Three cohorts of 3-6 patients (per cohort) received twice a week the Multiple Ascending Doses (MAD*) for up to 8 weeks to evaluate safety, clinical dose and preliminary efficacy for a duration of up to 6 weeks. Interim analysis was performed to decide on the safety of the low dose and continue to a higher dose SC administration. Study Duration: 1 year including screening, treatment and post treatment follow up
Cohort 1: Three to six (3-6) patients, each one received twice a week the decided MAD* for up to 8 weeks (up to 16 doses per patient). Subcutaneous dose: LOW; 0.05, mg/kg, with escalation to 0.2 mg/kg body weight at week 2-4. Cohort 2: Three to six (3-6) patients, each one received twice a week the decided MAD* for up to 8 weeks (up to 16 doses per patient). Subcutaneous dose: MEDIUM; 0.1 mg/kg, with escalation to 0.3 mg/kg body weight at week 2-4. Cohort 3: Three to six (3-6) patients, each one received twice a week the decided MAD* for up to 8 weeks (up to 16 doses per patient). Subcutaneous dose: HIGH; 0.2 mg/kg, with escalation to 0.4 mg/kg body weight at week 2-4. Interim analysis was performed to decide on the safety of all cohorts' doses and continue to a higher dose, up to 0.2 mg/kg for Cohort 1, up to 0.3 mg/kg for Cohort 2 and up to 0.4 mg/kg for Cohort 3, SC administration.
Effectiveness of Gammora assessed by reduced Viral load (by 0.5 LOG; Viral Suppression). • 1. Mean Change in CD4+ Cell Count as a Measure of Efficacy and Safety. • 2. Reduced viral protein p24 antigen. • 3. Functional Assessment of HIV Infection (FAHI) questionnaire.

CD4 T-cell = experiment: Phase I/IIa clinical trial: CD4 T-cell count; format: in vivo, human; conditions: patients treated with INS (part II with lopinavir plus ritonavir)
Protocol: Reduced viral protein p24 antigen. • 3. Functional Assessment of HIV Infection (FAHI) questionnaire.
In addition, the preliminary results indicated treatment efficacy as measured by decrease in viral load in HIV patients. Most patients achieved significant reduction in viral load for up to 90% from baseline during the first 5 weeks of SC administration, meeting its exploratory endpoint. […] In this study, patients were treated for 5 weeks with a combined treatment of the subcutaneous composition as previous (0.2-0.4 mg/kg twice a week) and commercially available lopinavir 800 mg plus ritonavir 200 mg daily. The control group received only lopinavir 800 mg plus ritonavir 200 mg for additional 5 weeks.

[2] = 5 weeks INS 0.2-0.4 mg/kg SC twice a week + lopinavir 800 mg plus ritonavir 200 mg daily

WTAVQMAVFIHNFKRK [INS]
Mortality ([1]; 17 days): No animal was found dead or in morbid state | Body weight ([1]; mice gained weight as expected): no differences between groups | HIV-1 RNA count (HIV-1; [2]): below 300 copies/mL | Reduction in viral load from baseline (HIV-1; [2]): up to 99% | Reduction in viral load from baseline (HIV-1; most patients, first 5 weeks of SC administration, INS alone): up to 90% | Increase of CD4 T-cell count relative to baseline (CD4 T-cell): up to 97%
